For the first assay, the target named is GDP-bound KRAS protein (aa 1-169), containing both G12C and C118A amino acid substitutions (Homo sapiens (Human), UniProt P01116, C118A/G12C). Put plainly: Coupled nucleotide exchange assay (SOS-mediated nucleotide exchange, AlphaScreen). It is filed as biochemical. Particulars: 5 min compound pre-incubation.
Sequence of GDP-bound KRAS protein (aa 1-169), containing both G12C and C118A amino acid substitutions (P01116 other isoform, or with tags, fused parts or gaps G12C/C118A): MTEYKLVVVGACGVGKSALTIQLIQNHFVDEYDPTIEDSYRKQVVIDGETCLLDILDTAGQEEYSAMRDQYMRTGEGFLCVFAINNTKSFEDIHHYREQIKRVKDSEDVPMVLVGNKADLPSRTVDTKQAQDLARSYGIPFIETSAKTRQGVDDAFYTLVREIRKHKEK
With `C=CC(=O)N1[C@H](C)CN(c2nc(=O)n(-c3c(C(C)C)cnnc3C(C)C)c3nc(-c4ccccc4F)c(Cl)cc23)C[C@@H]1C` [Example 206-1, 4-(cis-4-Acryloyl-3,5-dimethylpiperazin-1-yl)-6-chloro-1-(3,5-diisopropylpyridazin-4-yl)-7-(2-fluorophenyl)pyrido[2,3-d]pyrimidin-2(1H)-one], the “Coupled exchange IC50 (5 min; μM)” value was found to be 0.143 µM.
In the case of `C=CC(=O)N1C[C@H](C)N(c2nc(=O)n(-c3c(C)cc([S+](C)[O-])cc3C(C)C)c3nc(-c4ccccc4C)c(Cl)cc23)C[C@H]1C` (single isomer, unassigned) [Example 213-1], the “Coupled exchange IC50 (5 min; μM)” value was determined as 1.5 µM.
With `C=CC(=O)N1C[C@H](C)N(c2nc(=O)n(-c3c(N)ncnc3C(C)C)c3nc(-c4ccccc4F)c(Cl)cc23)C[C@H]1C` (single isomer, unassigned) [Example 189-2], the “Coupled exchange IC50 (5 min; μM)” value worked out at 14.7 µM.
The same measure, in the same setting: the figure for `C=CC(=O)N1C[C@H](C)N(c2nc(=O)n(C3CCCCC3)c3nc(-c4ccccc4F)c(Cl)cc23)C[C@H]1C` [110-2, 6-Chloro-1-cyclohexyl-4-[(2S,5R)-2,5-dimethyl-4-prop-2-enoyl-piperazin-1-yl]-7-(2-fluorophenyl)pyrido [2,3-d]pyrimidin-2-one] is 13.4 µM; for `C=CC(=O)N1C[C@H](C)N(c2nc(=O)n(-c3c(C(C)C)cc(N4CCC4)nc3C(C)C)c3nc(-c4ccccc4F)c(Cl)cc23)C[C@H]1C` [Example 182, 4-((2S,5R)-4-Acryloyl-2,5-dimethylpiperazin-1-yl)-1-(6-(azetidin-1-yl)-2,4-diisopropylpyridin-3-yl)-6-chloro-7-(2-fluorophenyl)pyrido[2,3-d]pyrimidin-2(1H)-one] it is 8.794 µM.

Still in this assay, the particulars now being: read-out: Coupled exchange IC50 (5 min; μM); 5 min compound pre-incubation.
For `C=CC(=O)N1C[C@H](C)N(c2nc(=O)n(-c3c(C)ccnc3C(C)C)c3nc(C#CC(C)(C)C)c(Cl)cc23)C[C@H]1C` (atropisomer, axis not shown; (M)) [Example 95-7, (M)-6-chloro~7-(3,3-dimethylbut-1-ynyl)-4-[(2S,5R)-2,5-dimethyl-4-prop-2-enoyl-piperazin-1-yl]-1-(2-isopropyl-4-methyl-3-pyridyl)pyrido [2,3-d]pyrimidin-2-one], the IC50 is 34 µM.
With `C=CC(=O)N1C[C@H](C)N(c2n/c(=N\C)n(CC(C)(C)C)c3nc(-c4ccccc4F)c(Cl)cc23)C[C@H]1C` [Example 151, 1-((2R,5S)-4-((Z)-6-Chloro-7-(2-fluorophenyl)-2-(methylimino)-1-neopentyl-1,2-dihydropyrido[2,3-d]pyrimidin-4-yl)-2,5-dimethylpiperazin-1-yl)prop-2-en-1-one 2,2,2-trifluoroacetate], the IC50 turned out to be 0.348 µM.
Still for that read-out and setting: the same measure for `C=CC(=O)N1C[C@H](C)N(c2nc(=O)n(-c3c(C(C)C)ccnc3C(C)C)c3nc(-c4ccccc4C)c(F)cc23)C[C@H]1C` [Example 124-5, 1-(2,4-Diisopropyl-3-pyridyl)-4-[(2S,5R)-2,5-dimethyl-4-prop-2-enoyl-piperazin-1-yl]-6-fluoro-7-(o-tolyl)pyrido[2,3-d]pyrimidin-2-one]: 0.439 µM; for `C=CC(=O)N1C[C@H](C)N(c2nc(=O)n3c4nc(c(Cl)cc24)-c2ccccc2C/C=C\Cc2cccc(C(C)C)c2-3)C[C@H]1C` [Example 146-1, (F)-(9Z)-19-Chloro-22-((2S,5R)-2,5-dimethyl-4-(2-propenoyl)-1-piperazinyl)-3-(2-propanyl)-1,23,26-triazapentacyclo[16.6.2.0˜2,7˜.0˜12,17˜0˜21,25-]hexacosa-2,4,6,9,12,14,16,18,20,22,25-undecaen-24-one and (F)-19-chloro-22-((2S,5R)-2,5-dimethyl-4-(2-propenoyl)-1-piperazinyl)-3-(2-propanyl)-1,23,26-triazapentacyclo[6.6.2.0˜2,7˜.0˜12,17˜.0˜21,25˜]hexacosa-2,4,6,9,12,14,16,18,20,22,25-undecaen-24-one]: 12.8 µM; for `C=CC(=O)N1C[C@H](C)N(c2nc(=O)n(-c3c(C)ccnc3C(C)C)c3nc(-c4ccccc4C(F)F)c(F)cc23)C[C@H]1C` (atropisomer, axis not shown; (M)) [Example 94-13, (M)-7-[2-(Difluoromethyl)phenyl]-4-[(2S,5R)-2,5-dimethyl-4-prop-2-enoyl-piperazin-1-yl]-6-fluoro-1-(2-isopropyl-4-methyl-3-pyridyl)pyrido [2,3-d]pyrimidin-2-one]: 0.387 µM.
Take `C=CC(=O)N1C[C@H](C)N(c2nc(=O)n(-c3c(C)cc(P(C)(C)=O)cc3C(C)C)c3nc(-c4ccccc4F)c(Cl)cc23)C[C@H]1C` [Example 102-7, 6-Chloro-1-(4-dimethylphosphoryl-2-isopropyl-6-methyl-phenyl)-4-[(2S,5R)-2,5-dimethyl-4-prop-2-enoyl-piperazin-1-yl]-7-(2-fluorophenyl) pyrido[2,3-d]pyrimidin-2-one]: the IC50 is 0.376 µM.
`C=CC(=O)N1C[C@H](C)N(c2nc(=O)n(-c3c(C)ccnc3C(C)C)c3nc(-c4cccc(C(F)(F)F)c4)c(Cl)cc23)C[C@H]1C` (atropisomer, axis not shown; (M)) [Example 92-56, (M)-6-Chloro-4-[(2S,5R)-2,5-dimethyl-4-prop-2-enoyl-piperazin-1-yl]-1-(2-isopropyl-4-methyl-3-pyridyl)-7-[3-(trifluoromethyl)phenyl]pyrido [2,3-d]pyrimidin-2-one]: the IC50 was 0.591 µM.
For `C=CC(=O)N1C[C@H](C)N(c2nc(=O)n(-c3c(CN(C)C)ccnc3C(C)C)c3nc(-c4ccccc4F)c(Cl)cc23)C[C@H]1C` (single isomer, unassigned) [Example 80-16-2], the half-inhibitory concentration (IC50) came to 0.903 µM.
Consider `C=CC(=O)N1C[C@H](C)N(c2nc(=O)n(-c3c(C)ccnc3C(C)C)c3nc(-c4ccccc4C(=O)O)c(F)cc23)C[C@H]1C` (atropisomer, axis not shown; (M)) [Example 94-15, (M)-2-[4-[(2S,5R)-2,5-Dimethyl-4-prop-2-enoyl-piperazin-1-yl]-6-fluoro-1-(2-isopropyl-4-methyl-3-pyridyl)-2-oxo-pyrido[2,3-a]pyrimidin-7-yl]benzoic acid], for which the IC50 worked out at 0.963 µM.
For `C=CC(=O)N1C[C@H](C)N(c2nc(=O)n(-c3c(C(C)C)nc(CC)nc3C(C)C)c3nc(-c4ccccc4F)c(Cl)cc23)C[C@H]1C` [Example 169, 6-Chloro-4-[(2S,5R)-2,5-dimethyl-4-prop-2-enoyl-piperazin-1-yl]-1-(2-ethyl-4,6-diisopropyl-pyrimidin-5-yl)-7-(2-fluorophenyl)pyrido[2,3-d]pyrimidin-2-one], the IC50 is 0.55 µM.
Take `C=CC(=O)N1C[C@H](C)N(c2nc(=O)n(-c3c(C)ccnc3C(C)C)c3nc(C=C(C)C)c(Cl)cc23)C[C@H]1C` (atropisomer, axis not shown; (M)) [Example 92-8, (M)-6-Chloro-4-[(2S,5R)-2,5-dimethyl-4-prop-2-enoyl-piperazin-1-yl]-1-(2-isopropyl-4-methyl-3-pyridyl)-7-(2-methylprop-1-enyl)pyrido[2,3-d]pyrimidin-2-one]: the IC50 was 0.985 µM.
Take `C=CC(=O)N1C[C@H](C)N(c2nc(=O)n(-c3c(C)ccnc3C(C)C)c3nc(-c4ncccc4C)c(Cl)cc23)C[C@H]1C` (atropisomer, axis not shown; (M)) [Example 96-1, (M)-6-Chloro-4-[(2S,5R)-2,5-dimethyl-4-prop-2-enoyl-piperazin-1-yl]-1-(2-isopropyl-4-methyl-3-pyridyl)-7-(3-methyl-2-pyridyl)pyrido[2,3-d]pyrimidin-2-one]: the IC50 was 0.345 µM.
Turning to `C=CC(=O)N1C[C@H](C)N(c2nc(=O)n(-c3c(C)ccnc3C(C)C)c3nc(-c4ccccc4F)c(Cl)nc23)C[C@H]1C` [Example 106-6, 6-Chloro-4-[(2S,5R)-2,5-dimethyl-4-prop-2-enoyl-piperazin-1-yl]-7-(2-fluorophenyl)-1-(2-isopropyl-4-methyl-3-pyridyl)pteridin-2-one], the IC50 was 0.322 µM.
`C=CC(=O)N1C[C@H](C)N(c2nc(=O)n3c4nc(c(Cl)cc24)-c2ccccc2C/C=C\Cc2cccc(C(C)C)c2-3)C[C@H]1C` (single isomer, unassigned) [Example 146-1-2]: the IC50 was 53.8 µM.
With `C=CC(=O)N1C[C@H](C)N(c2nc(=O)n(-c3c(C)ccnc3C(C)C)c3nc(-c4cc(F)ccc4F)c(F)cc23)C[C@H]1C` (atropisomer, axis not shown; (M)) [Example 94-3, (M)-7-(2,5-difluorophenyl)-4-[(2S,5R)-2,5-dimethyl-4-prop-2-enoyl-piperazin-1-yl]-6-fluoro-1-(2~ isopropyl-4-methyl-3-pyridyl)pyrido [2,3-d]pyrimidin-2-one], the IC50 came to 0.684 µM.
With `C=CC(=O)N1CCN(c2c(C(N)=O)c(=O)n(-c3c(C)ccnc3C(C)C)c3nc(-c4ccccc4F)c(Cl)cc23)CC1` [Example 221, 4-(4-Acryloylpiperazin-1-yl)-6-chloro-7-(2-fluorophenyl)-1-(2-isopropyl-4-methylpyridin-3-yl)-2-oxo-1,2-dihydro-1,8-naphthyridine-3-carboxamide], the half-maximal inhibitory concentration (IC50) is 1.26 µM.
Consider `C=CC(=O)N1[C@H](C)CN(c2nc(=O)n(-c3c(C)cc(N)nc3C(C)C)c3nc(-c4ccccc4F)c(F)cc23)C[C@@H]1C` (single isomer, unassigned) [Example 123-4], for which the 50% inhibitory concentration (IC50) came to 1 µM.
Same read-out and setting: the same measure for `C=CC(=O)N1C[C@H](C)N(c2nc(=O)n(-c3c(N(C)C)ccnc3C(C)C)c3nc(-c4ccccc4C(C)C)c(Cl)cc23)C[C@H]1C` (single isomer, unassigned) [Example 103-1-1]: 1.26 µM.
The same measure, in the same setting: the figure for `C=CC(=O)N1C[C@H](C)N(c2nc(=O)n(-c3c(C)cc(CN(C)C)cc3C(C)C)c3nc(-c4c(O)cccc4F)c(F)cc23)C[C@H]1C` (single isomer, unassigned) [Example 80-21-1] is 0.949 µM; for `C=CC(=O)N1C[C@H](C)N(c2nc(=O)n(-c3c(C)ccnc3C(C)C)c3nc(-c4ccccc4P(C)(C)=O)c(F)cc23)C[C@H]1C` (atropisomer, axis not shown; (M)) [Example 72-23, (M)-7-(2-Dimethylphosphorylphenyl)-4-[(2S,5R)-2,5-dimethyl-4-prop-2-enoyl-piperazin-1-yl]-6-fluoro-1-(2-isopropyl-4-methyl-3-pyridyl)pyrido[2,3-d]pyrimidin-2-one] it is 0.647 µM.

The values are drawn from patent US11285156B2, “Substituted piperazines as KRAS G12C inhibitors” (Amgen Inc., priority 2018, dated 2022).
